Consider 26 molecules from patent publication US20240025918A1, “KRAS G12D Inhibitors” (Jacobio Pharmaceuticals Co., Ltd, priority 2020, published 2024).

For assay [1], the target named is T1, GDP-loaded HIS-KRAS(G12D, aa 1-169) (Homo sapiens, UniProt P01116, G12D).
T1 construct: GDP-loaded HIS-KRAS(G12D, aa 1-169)
As to the kind of experiment: SOS1 catalyzed nucleotide exchange assay (TR-FRET). Conditions: 4 hours at 25° C. The format is biochemical. How it is done: GDP-loaded HIS-KRAS(G12D, aa 1-169) was pre-incubated with a compound in the presence of 10 nM GDPin a 384-well plate (Greiner) for 15 min, then purified SOS1 ExD(Flag tag, aa 564-1049), BODIPY™ FL GTP (Invitrogen) and MAb (monoclonal antibody) Anti 6HIS-Tb cryptate Gold (Cisbio) were added to the assay wells (Final concentration: 1.5 nM GDP-loaded HIS-KRAS(G12D), 5 nM GDP, 0.5 μM SOS1 ExD, 80 nM BODIPY™ FL GTP, 52.5 ng/mL MAb Anti 6HIS-Tb cryptate Gold) and incubated for 4 hours at 25° C. Wells containing same percent of DMSO served as vehicle control, and wells without KRAS served as low control. TR-FRET signals were read on Tecan Spark multimode microplate reader. The parameters were F486: Excitation 340 nm, Emission 486 nm, Lag time 100 μs, Integration time 200 μs; F515: Excitation 340 nm, Emission 515 nm, Lag time 100 μs, Integration time 200 μs. TR-FRET ratios for each individual wells were calculated by equation: TR-FRET ratio=(Signal F515/Signal F486)*10000. The percent of activation of compounds treated wells were normalized between vehicle control and low control (% Activation=(TR-FRET ratioCompound treated−TR-FRET ratioLow control)/(TR-FRET ratioVehicle control−TR-FRET ratioLow control)*100%). Then the data were analyzed by fitting a 4-parameter logistic model or calculating in Excel to calculate IC50 values.

In assay [2] the target is T2, GppNp-loaded HIS-KRAS(G12D, aa 1-169) and cRAF RBD (Homo sapiens, UniProt P01116, G12D).
T2 construct: GppNp-loaded HIS-KRAS(G12D, aa 1-169)
T2 sequence (P01116 1-169 isoform P01116-2 G12D): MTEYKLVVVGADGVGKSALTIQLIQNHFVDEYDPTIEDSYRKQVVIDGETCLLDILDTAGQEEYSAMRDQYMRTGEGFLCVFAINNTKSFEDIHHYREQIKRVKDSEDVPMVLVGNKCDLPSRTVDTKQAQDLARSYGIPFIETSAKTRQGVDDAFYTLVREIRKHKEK
As to the kind of experiment: GTP-KRAS and cRAF interaction assay (HTRF). The following applies: 2 hours at 25° C. The format is biochemical. The procedure: GppNp-loaded HIS-KRAS(G12D, aa 1-169) was pre-incubated with a compound in the presence of 200 μM GTP in a 384-well plate (Greiner) for 15 min, then cRAF RBD(GST tag, aa 50-132, CreativeBioMart), MAb Anti GST-d2 (Cisbio) and MAb Anti 6HIS-Tb cryptate Gold (Cisbio) were added to the assay wells (Final concentration: 2.0 nM GppNp-loaded HIS-KRAS(G12D), 100 μM GTP, 35 nM cRAF RBD, 1 μg/mL MAb Anti GST-d2, 52.5 ng/mL MAb Anti 6HIS-Tb cryptate Gold) and incubated for 2 hours at 25° C. Wells containing same percent of DMSO served as vehicle control, and wells without KRAS served as low control. HTRF signals were read on Tecan Spark multimode microplate reader and HTRF ratios were calculated under manufacturer's instructions. The percent of activation of compounds treated wells were normalized between vehicle control and low control (% Activation=(HTRF ratioCompound treated−HTRF ratioLow control)/(HTRF ratioVehicle control−HTRF ratioLow control)*100%). Then the data were analyzed by fitting a 4-parameter logistic model or calculating in Excel to calculate IC50 values.

Assay [3] relates to AGS cells expressing KRAS G12D. As to the kind of experiment: Phospho-ERK1/2(THR202/TYR204) HTRF assay. The following applies: Homo sapiens; Phospho-ERK1/2 in AGS cells, 2 hours incubation. The format is cell-based. How it is done:
AGS cells expressing KRAS G12D were cultured in F12K medium (Gibco) containing 10% fetal bovine serum (Gibco). The AGS cells in culture medium were seeded in 96-well plates at a concentration of 40,000 cells/well and then put in a 37° C./5% CO2 cell incubator to incubate overnight. The next day, culture medium was removed and the compound diluted in assay medium (F12K, 0.1% FBS) was added in each well. After 2 hours incubation in a 37° C./5% CO2 cell incubator, the assay medium in 96-well plates was removed, then 50 μL of 1× blocking reagent-supplemented lysis buffer (Cisbio) was added and the plates were incubated at 25° C. for 45 min with shaking. 10 μL of cell lysates from the 96-well plates were transferred to a 384-well plate (Greiner) containing 2.5 μL/well HTRF® pre-mixed antibodies (Cisbio 64AERPEH). Incubate 4 hours at 25° C. and then read HTRF signals on Tecan Spark multimode microplate reader. The data were analyzed using a 4-parameter logistic model to calculate IC50 values.

A further assay has as its system AsPC-1. The experiment in a line: Cell growth inhibition assay, AsPC-1 (CellTiter-Glo). The format is cell-based. Conditions: Homo sapiens, ASPC1, 144 h; AsPC-1 cell viability, 6 days incubation. How it is done:
AsPC-1 cultured in RPMI-1640 medium (Gibco) containing 10% fetal bovine serum (Gibco). Cells in culture medium were plated in 96-well plates at a concentration of 1000 cells/well (100 μL/well) and allowed to attach overnight.
(§1) The next day, compounds were diluted in culture medium and added to the plates. After 6 days incubation in a 37° C./5% CO2 cell incubator, the cell viability was detected by CellTiter-Glo® Luminescent Cell Viability Assay kit (Promega). Luminescent signals were read on Tecan Spark multimode microplate reader and analyzed using a 4-parameter logistic model to calculate IC50 values.
Background: In ATP-based viability assays light output follows the ATP content of the culture.

The subject of a further assay is AGS. The experiment in a line: Cell growth inhibition assay, AGS (CellTiter-Glo). The format is cell-based. Conditions: Homo sapiens, 144 h; AGS cell viability, 6 days incubation. How it is done: AGS cultured in F12K medium (Gibco) containing 10% fetal bovine serum (Gibco). Cells in culture medium were plated in 96-well plates at a concentration of 500 cells/well (100 μL/well) and allowed to attach overnight.
as §1

T1 sequence (P01116 1-169 isoform P01116-2 G12D): as above

For the molecule `C#Cc1cccc2cc(O)cc(-c3c(F)cc4c(N5CC6CCC(C5)N6)nc(OCC5(CN6CCOC7(CC7)C6)CC5)nc4c3F)c12` (single isomer, unassigned) [Compound 2A], the IC50 (as a rule, the concentration that inhibits the measured activity by half) in assay [1] is above 100 nM; in assay [2], above 10000 nM.

`C#Cc1cccc2cc(O)cc(-c3c(F)cc4c(N5CC6CCC(C5)N6)nc(OCC5(CN6CCC7(CC6)CC7(F)F)CC5)nc4c3F)c12` (single isomer, unassigned) [Compound 3A]: the IC50 in assay [1] was above 100 nM; in assay [2], 9080 nM.

Turning to `C#Cc1c(F)ccc2cc(O)cc(-c3c(Cl)cc4c(N5CC6CCC(C5)N6)nc(OCC5(CN6CC7CC6CO7)CC5)nc4c3F)c12` (single isomer, unassigned) [Compound 4A], the IC50 in assay [1] was 244 nM; in assay [2] it was 1570 nM.

Take `C#Cc1c(F)ccc2cc(O)cc(-c3c(Cl)cc4c(N5CC6CCC(C5)N6)nc(OCC5(CN6CC7CC6CO7)CC5)nc4c3F)c12` (single isomer, unassigned) [Compound 4B]: the IC50 in assay [1] was found to be 0.31 nM; in assay [2] it was 9.19 nM.

Regarding `C#Cc1cccc2cc(O)cc(-c3c(F)cc4c(N5CC6CCC(C5)N6)nc(OCC5(CN6CC7CC6CO7)CC5)nc4c3F)c12` (single isomer, unassigned) [Compound 13A], the concentration for half-maximal inhibition (IC50) in assay [1] is above 100 nM; in assay [2], above 10000 nM; in assay [3], 271 nM.

For the molecule `C#Cc1cccc2cc(O)cc(-c3c(F)cc4c(N5CC6CCC(C5)N6)nc(OCC5(CN6CC7CC6CO7)CC5)nc4c3F)c12` (single isomer, unassigned) [Compound 36A], the values for the IC50 in assay [1] and in assay [2] were above 100 nM and 20.2 nM, respectively.

For `C#Cc1cccc2cc(O)cc(-c3c(F)cc4c(N5CC6CCC(C5)N6)nc(OCC5(CN6CCC6)CC5)nc4c3F)c12` [Compound 1], the results for the IC50 in assay [1], in assay [2] and in assay [3] were 5.41 nM, 247 nM and 58.3 nM, respectively.

On to `C#Cc1cccc2cc(O)cc(-c3c(F)cc4c(N5CC6CCC(C5)N6)nc(OCC5(CN6CCOC7(CC7)C6)CC5)nc4c3F)c12` [Compound 2], for which the concentration for half-maximal inhibition (IC50) in assay [1] stood at 26 nM; in assay [2], 228 nM.

For the molecule `C#Cc1c(F)ccc2cc(O)cc(-c3c(Cl)cc4c(N5CC6CCC(C5)N6)nc(OCC5(CN6C[C@@H]7C[C@H]6CO7)CC5)nc4c3F)c12` [Compound 4], half-maximal inhibition in assay [3] (IC50) was put at 38.8 nM.

With `C#Cc1cccc2cc(O)cc(-c3c(F)cc4c(N5CC6CCC(C5)N6)nc(OCC5(CN6CCCC7(C6)CC7(F)F)CC5)nc4c3F)c12` (stereo not drawn) [Compound 5], the half-inhibitory concentration (IC50) in assay [1] is 55.5 nM; in assay [2] it was 310 nM; in the assay with AsPC-1, 62.1 nM; with AGS, 21 nM.

As for `C#Cc1cccc2cc(O)cc(-c3c(F)cc4c(N5CC6CCC(C5)N6)nc(OCC5(CN6CCOC7(CCC7)C6)CC5)nc4c3F)c12` [Compound 6], the IC50 in assay [1] is 66.2 nM; in assay [2], 437 nM.

As to `C#Cc1cccc2cc(O)cc(-c3c(F)cc4c(N5CC6CCC(C5)N6)nc(OCC5(CN6CC7CC6CO7)CC5)nc4c3F)c12` (stereo not drawn) [Compound 13], the IC50 in assay [1] was found to be 12 nM.

The molecule `C#Cc1cccc2cc(O)cc(-c3c(F)cc4c(N5CC6CCC(C5)N6)nc(OCC5(CN6CCc7ccccc7C6)CC5)nc4c3F)c12` [Compound 16] returned an IC50 in assay [1] of 27.3 nM.

Consider `C#Cc1cccc2cc(O)cc(-c3c(F)cc4c(N5CC6CCC(C5)N6)nc(OCC5(CN6CC7(CC(O)C7)C6)CC5)nc4c3F)c12` [Compound 18], for which the IC50 in assay [1] came to 0.975 nM; in assay [2] it was 77.8 nM.

Take `C#Cc1cccc2cc(O)cc(-c3ccc4c(N5CC6CCC(C5)N6)nc(OCC5(Cc6ccccn6)CC5)nc4c3F)c12` [Compound 23]: the values for the IC50 in assay [1] and in assay [2] were above 100 nM and above 10000 nM, respectively.

As for `C#Cc1cccc2cc(O)cc(-c3c(F)cc4c(N5CC6CCC(C5)N6)nc(OCC5(CN6CC(O)C6)CC5)nc4c3F)c12` [Compound 26], the IC50 in assay [1] worked out at 2.58 nM; in assay [2], 113 nM; in assay [3] it was 56.3 nM.

With `C#Cc1cccc2cc(O)cc(-c3c(F)cc4c(N5CC6CCC(C5)N6)nc(OCC5(CN6CC(C)(O)C6)CC5)nc4c3F)c12` [Compound 29], the IC50 in assay [1] came to 3.5 nM; in assay [2] it was 71.6 nM; in assay [3], 25 nM.

As to `C#Cc1c(F)ccc2cc(O)cc(-c3c(C(C)C)cc4c(N5CC6CCC(C5)N6)nc(OCC5(CN6C[C@@H]7C[C@H]6CO7)CC5)nc4c3F)c12` [Compound 38], the IC50 is 1.15 nM in assay [1] and 5.82 nM in assay [2].

Consider `C#Cc1c(F)ccc2cc(O)cc(-c3c(C(F)(F)F)cc4c(N5CC6CCC(C5)N6)nc(OCC5(CN6C[C@@H]7C[C@H]6CO7)CC5)nc4c3F)c12` [Compound 40], for which the 50% inhibitory concentration (IC50) in assay [1] stood at 1.29 nM; in assay [2] it was 8.09 nM.

As to `C#Cc1c(F)ccc2cc(O)cc(-c3c(C#N)cc4c(N5CC6CCC(C5)N6)nc(OCC5(CN6C[C@@H]7C[C@H]6CO7)CC5)nc4c3F)c12` [Compound 41], the IC50 in assay [1] is 1.04 nM; in assay [2] it was 7.18 nM.

As to `C#Cc1c(F)ccc2cc(O)cc(-c3c(SC(F)(F)F)cc4c(N5CC6CCC(C5)N6)nc(OCC5(CN6C[C@@H]7C[C@H]6CO7)CC5)nc4c3F)c12` [Compound 42], the results for the IC50 in assay [1] and in assay [2] were 0.97 nM and 4.04 nM, respectively.

Consider `CCc1c(F)ccc2cc(O)cc(-c3c(C(F)(F)F)cc4c(N5CC6CCC(C5)N6)nc(OCC5(CN6C[C@@H]7C[C@H]6CO7)CC5)nc4c3F)c12` [Compound 43], for which the values for the IC50 in assay [1] and in assay [2] were 4.64 nM and 436 nM, respectively.

As for `C#Cc1cccc2cc(O)cc(-c3c(F)cc4c(N5CC6CCC(C5)N6)nc(OCC5(CN6CC7(CCCO7)C6)CC5)nc4c3F)c12` [Compound 44], the IC50 in assay [1] amounted to 35.7 nM.

Take `C#Cc1cccc2cc(O)cc(-c3c(F)cc4c(N5CC6CCC(C5)N6)nc(OCC5(CN6CC7(CC(OC)C7)C6)CC5)nc4c3F)c12` [Compound 49]: the results for the IC50 in assay [1], in assay [2] and in assay [3] were 3.95 nM, 73.2 nM and 46.4 nM, respectively.

With `C#Cc1cccc2cc(O)cc(-c3c(F)cc4c(N5CC6CCC(C5)N6)nc(OCC5(CN6CCn7cncc7C6)CC5)nc4c3F)c12` [Compound 53], the values for the IC50 in assay [1], in assay [2] and in assay [3] were 2.59 nM, 818 nM and 80.3 nM, respectively.

Consider `C#Cc1cccc2cc(O)cc(-c3c(F)cc4c(N5CC6CCC(C5)N6)nc(OCC5(CN6C7COCC6C7)CC5)nc4c3F)c12` [Compound 57], for which the 50% inhibitory concentration (IC50) in assay [1] is 6.81 nM; in assay [2], 439 nM; in assay [3], 46.3 nM.
